The results in this text go back to patent US20100202971A1, “COMPOUND HAVING TUMOR-RESIDENT PROPERTY” (priority 2009, published 2010).

For the data set, the system named is human colon carcinoma cells (SW480). The data set is described as follows: Pharmacokinetics 1: concentration-time course in blood plasma, organs and tumor after intraperitoneal administration (LC/MS). To be noted: 10 mg/kg intraperitoneal. Format: in vivo, KSN nude mice. As for the experimental part:
To eight-week-old male KSN nude mice (Japan SLC, Inc.), 2×10^6 of human colon carcinoma cells (SW480) were transplanted subcutaneously, two weeks later (body weight approximately 25 g, tumor volume approximately 200 mm^3) αSQMG C18:0 or αSQAP C18:0 was dissolved in physiological saline solution and administered intraperitoneally at a dose of 10 mg/kg (0.1 mL). After the administration, the mice were slaughtered chronologically with carbon dioxide; 30 minute, 1 hour, 2 hours, 4 hours, 12 hours, and 24 hours after the administration. Tissues of blood, liver, kidney, lung and spleen, and tumor tissue were then collected. At each time when tissues were collected, five animals were used.
Whole blood was collected from postcaval vein with use of an injection needle wetted with heparin sodium injection solution (10,000 unit/10 mL) to obtain blood plasma by 20 minutes of centrifugation at 6,000 g. To 90 μl of blood plasma, 5 μl of an internal standard compound (αSQMG C16:0), 5 μl of distilled water, and 4 μl of phosphoric acid were added, and denatured protein by adding 96 μl of acetonitrile. To 0.2 mL of the solution, 600 μl of 10 mM ammonium acetate solution was added, and stirred sufficiently to obtain supernatant by centrifugation at 16,000 g for 15 minutes. The supernatant was subjected to solid-phase extraction operation as described below. The solid-phase extraction was performed by washing with 1000 μl of 10 mM ammonium acetate aqueous solution and 200 μl of 10 mM ammonium acetate aqueous solution containing 10% acetonitrile, followed by elution of a test compound with 200 μl of 10 mM ammonium acetate aqueous solution containing 70% acetonitrile with use of Empore (trademark) disc cartridge (3M Company, product number 4115SD). The compound was used as a LC/MS analytical sample.
Each organ was extirpated after collection of blood and immediately frozen on dry ice. The frozen sample was subjected to frost shattering, and the weight was measured. Subsequently, ½-fold (weight ratio) internal standard compound (αSQMG C16:0) and distilled water were added, and 8-fold (weight ratio) extraction solution (2.5% NP-40, 2% phosphoric acid, 2 mM Eserine aqueous solution) was further added to the sample, followed by homogenization. The homogenized solution was subjected to protein denaturation with acetonitrile and solid phase extraction in the same manner as the above-mentioned treatment of blood plasma to obtain an analytical sample.
10 μl of the analytical sample was separated with a reverse phase HPLC system equipped with Capcell Pak MG column (particle diameter; 3 μm, column size; 2.1×50 mm, Shiseido Co., Ltd.). HPLC was performed with 68% acetonitrile and a single solvent of 10 mM ammonium acetate aqueous solution at a flow rate of 0.2 mL per minute. Mass spectrum was measured in a negative mode, and the peak area ratio of the internal standard compound was calculated by integration of the peak area from chromatogram corresponding to each ion by measuring a precursor ion; m/z=583.1, fragment ion; m/z=224.7 and m/z=298.8 for αSQMG C18:0, a precursor ion; m/z=567.1, fragment ion; m/z=224.7 and m/z=283.1 for αSQAP C18:0, and a precursor ion; m/z=555.1, fragment ion; m/z=224.7 and m/z=298.8 for a internal standard compound αSQMG C16:0. As a method of quantitative analysis, an internal standard analysis was adopted. More specifically, a standard curve was drawn based on the peak area ratio of the internal standard compound by analyzing the sample to which the test compound was added, to determine the quantity of the test compound.

`CCCCCCCCCCCCCCCCCC(=O)OCC(O)CO[C@H]1O[C@H](CS(=O)(=O)[O-])[C@@H](O)[C@H](O)[C@H]1O.[Na+]` (stereo partly drawn) [αSQMG C18:0]: the “concentration in tumor tissues immediately after administration in comparison with other tissues” value (SW480 tumor) is recorded as “low”. The “time of the highest concentration in blood plasma, liver, kidney, spleen and lung” value (SW480 tumor-bearing nude mice) was “immediately after the administration”. In addition, for the setting “SW480 tumor-bearing nude mice, blood plasma”, the “time after administration at which concentration fell below the detection limit, blood plasma” value is “four”. The “time after administration at which concentration fell below the detection limit, kidney” value (SW480 tumor-bearing nude mice, kidney) was “four”. For the same compound, the “time after administration at which concentration fell below the detection limit, liver” value (SW480 tumor-bearing nude mice, liver) is given as “four”. For the same compound, the “time after administration at which concentration fell below the detection limit, lung” value (SW480 tumor-bearing nude mice, lung) is “four”. For the same compound, the “time after administration at which concentration fell below the detection limit, spleen” value (SW480 tumor-bearing nude mice, spleen) amounted to 12 h. In addition, the “concentration in tumor tissues 24 hours after administration” value (SW480 tumor, 24 hours) is listed as “detectable”. Further, for the setting “SW480 tumor, followed to 24 hours”, the “residence in tumor tissues” value is “resides for a long period”.
